# Source: publication PMC10144301, “Antiseizure Properties of Histamine H3 Receptor Antagonists Belonging 3,4-Dihydroquinolin-2(1H)-Ones” (Molecules, 2023)
# Values joined by “and” are separate entries in the source; they are usually repeats but may differ in a detail not shown here. Equal values may be shown once.
# Tests used:
# [1] = test system: maximal electroshock seizure (MES) model; assay: Maximal electroshock seizure (MES) model; type: in vivo; conditions: mice
# Description: One of the two test models is the MES seizure model, another is the PTZ-induced seizure model. […] In addition, the administration of this dosage can minimize the impact of other possible side effects such as central inhibition and cardiac toxicity. […] In addition, the tested dose of VPA was 300 mg/kg. It could be seen that all animals in the control group experienced hindlimb stiffness after the electrical stimulation in the MES model. In the treated group, the definition of protection was the reduction or vanishing of the tonic hind limb extension (THLE) in mice. […] The neurological safety of the compounds 2h, 4a, and 4b was evaluated by the rotarod test. In the MES test, the definition of protection was the reduction or vanishing of the THLE in mice. In the PTZ test, the seizures were induced through the subcutaneous administration of PTZ (85 mg/kg). The antiseizure activities of the compounds in the PTZ test were evaluated by comparing the convulsion scores in mice between taking the compounds or not. VPA and PIT were used as positive drugs. To explore the anticonvulsive mechanism, compound 4a (10 mg/kg) was co-injected with RAMH (10 mg/kg). In addition, the THLE was recorded and compared with that of the mice treated by compound 4a alone. The detailed experimental operations in the MES, PTZ, and rotarod tests refer to our previous paper. All the animal experiments were carried out on 4-week-old KunMing male mice weighing from 20 to 25 g. The mice were housed collectively in polycarbonate cages in groups of 30, where they were maintained on a 12 h light/dark cycle in a temperature controlled (25 ± 2 °C) laboratory with free access to food and water. In the MES and PTZ models, seven animals were used in each group. In the rotarod test, three animals were used in each group. Each animal was used only once. All the experiments referring to animals were applied according to the Guide for the Care and Use of Laboratory Animals and were approved by the Medical Ethics Committee of Jinggangshan University, approval number: 220811002.
# [2] = test system: PTZ-induced seizure model; assay: Pentylenetetrazole (PTZ)-induced seizure model; type: in vivo; conditions: mice, 10 mg/kg, i.p.; PTZ 85 mg/kg s.c.
# Description: One of the two test models is the MES seizure model, another is the PTZ-induced seizure model. […] In addition, the administration of this dosage can minimize the impact of other possible side effects such as central inhibition and cardiac toxicity. […] In addition, the tested dose of VPA was 300 mg/kg. The PTZ model was usually used to screen the antiepileptic candidates for the absence of seizures. In this work, compounds 2a-2i, 3a-3c, and 4a-4b were also evaluated for their antiseizure action in the PTZ model in mice, while using VPA as the positive drug. […] The failure of synthesized compounds in the PTZ model is expected because our previously reported H3R inhibitors were also ineffective in the PTZ model. […] A considerable increase in histamine levels was found in the brain after MES-induced seizures, whereas a tendency toward a decrease in histamine levels was observed after PTZ-kindled convulsions. […] The neurological safety of the compounds 2h, 4a, and 4b was evaluated by the rotarod test. In the MES test, the definition of protection was the reduction or vanishing of the THLE in mice. […] The antiseizure activities of the compounds in the PTZ test were evaluated by comparing the convulsion scores in mice between taking the compounds or not. […] In addition, the THLE was recorded and compared with that of the mice treated by compound 4a alone. […]
# [3] = Rotarod test for neurotoxicity; type: in vivo; conditions: rotarod test, mice, i.p., three animals per group
# Description: A rotarod test was carried out to estimate the neurological safety of compounds 2h, 4a, and 4b.
# The neurological safety of the compounds 2h, 4a, and 4b was evaluated by the rotarod test. In the MES test, the definition of protection was the reduction or vanishing of the THLE in mice. In the PTZ test, the seizures were induced through the subcutaneous administration of PTZ (85 mg/kg). The antiseizure activities of the compounds in the PTZ test were evaluated by comparing the convulsion scores in mice between taking the compounds or not. VPA and PIT were used as positive drugs. To explore the anticonvulsive mechanism, compound 4a (10 mg/kg) was co-injected with RAMH (10 mg/kg). In addition, the THLE was recorded and compared with that of the mice treated by compound 4a alone. The detailed experimental operations in the MES, PTZ, and rotarod tests refer to our previous paper. All the animal experiments were carried out on 4-week-old KunMing male mice weighing from 20 to 25 g. The mice were housed collectively in polycarbonate cages in groups of 30, where they were maintained on a 12 h light/dark cycle in a temperature controlled (25 ± 2 °C) laboratory with free access to food and water. In the MES and PTZ models, seven animals were used in each group. In the rotarod test, three animals were used in each group. Each animal was used only once. All the experiments referring to animals were applied according to the Guide for the Care and Use of Laboratory Animals and were approved by the Medical Ethics Committee of Jinggangshan University, approval number: 220811002.
# [4] = test system: maximal electroshock seizure (MES) model; parameters: method as in PMID 33325568; conditions: 10 mg/kg, previous work; cited from earlier work
# [5] = test system: PTZ-induced seizure model; parameters: method as in PMID 27853355; conditions: Sadek's study; cited from earlier work
# photosensitive epilepsy = conditions: dose of 30 mg or 60 mg; cited from earlier work
# [6] = test system: electrical kindling model of epilepsy; conditions: cited from earlier work
smiles,measurement,setting,value
"Clc1ccc(CCCOCCCN2CCCCC2)cc1 [PIT, Pitolisant, reference compound]","Duration of tonic hind limb extension (THLE), protection in MES model","[1]; 10 mg/kg, i.p., compared to control group",decreased the duration of THLE significantly
same,THLE induced by MES,[1]; 30 mg/kg,fully abolished the THLE
same,Dose dependence of protection in MES model,"[1]; doses of 3, 10 and 30 mg/kg",dose-dependent antiseizure activity
same,Protection against seizures induced by PTZ (seizure score),[2],did not exhibit protection
same,Neurotoxicity,[3]; 10 mg/kg,0/3
same,Neurotoxicity,[3]; 30 mg/kg,0/3
same,Neurotoxicity,"[3]; 100 mg/kg, 100 mg/kg",no neurotoxicity and 0/3
same,Antiseizure activity,[4],showed an antiseizure activity
same,Effect in PTZ model,[5],failure
same,Effect on photosensitive epilepsy and EEG,photosensitive epilepsy,can inhibit photosensitive epilepsy
same,Antiseizure activity in electrical kindling model,[6],powerful antiseizure activity
